Literature values as cited in patent US20020132021A1, “Elicited plant products” (priority 1997, published 2002).

Test system: indole alkaloid pathway
Conditions: jasmonic acid addition, dosage studies

CC/C=C\C[C@H]1C(=O)CC[C@@H]1CC(=O)O [Jasmonic acid]
increase in the specific yield of ajmalicine: 80%
increase in the specific yield of horhammericine: 500%
increase in the specific yield of lochnericine: 150%
increase in the specific yield of serpentine: 60%
